# Several values for one entry are separate records, joined by “and”; a condition that tells them apart may be missing. Equal values may be shown once. Read-outs that look alike come from different tables or passages of the source.
# Assays:
# [1] = tested on: Colletotrichum lindemuthianum; test: in vitro-Test with fungal microorganisms, Method A (tables D1-D8); format: cell-based
# Protocol: (§1) Example: In Vitro-Test with Fungal Microorganisms
# (§2) Wells of 96-well microtiter plates are filled with 10 μl of a preparation of test compound or compound combination in methanol+emulsifier alkylaryl-polyglycol-ether. Thereafter, the solvent is evaporated in a hood. At the next step, 100 μl of liquid potato dextrose medium is given into each well, that has been amended with an appropriate concentration of spores or mycelium suspension of the test fungus.
# (§3) With the aid of a photometer, the extinction in all wells is measured at the wavelength of 620 nm.
# (§4) The microtiter plates are incubated at 20° C. and 85% relative humidity. The inhibition of growth is determined again photometrically 3-5 days after the application. Efficacy is calculated in relation to the untreated control, 0% efficacy means fungal growth as high as in untreated control while 100% efficacy means no fungal growth is measured.
# (§5) The data in tables A1 to A12, B1 to B14, C1 to C10, D1 to D8, E1 to E8, F1 to F11, G1 to G4, H1 to H4 and I1 to I5 were collected according to Method A. The data in tables A13 to A22, B15 to B18, C11 to C20, E9 to E16, F12 to F15, G5 to G15, H5 to H8, I6 to I11 and J1 to J11 were collected according to Method B.
# Fusarium culmorum [2] = test: in vitro-Test with fungal microorganisms, Method B (tables G5-G15); format: cell-based
# Protocol: as §1
# (§6) Wells of 96-well microtiter plates are filled with 30 μl of a preparation of test compound or compound combination in methanol+emulsifier alkylaryl-polyglycol-ether. Thereafter, the solvent is evaporated in a hood. At the next step, 200 μl of liquid growth medium is given, that has been amended with an appropriate concentration of spores or mycelium suspension of the test fungus.
# (§7) With the aid of a photometer, the extinction in all wells is measured at the wavelength of 600 nm.
# (§8) The microtiter plates are incubated for 3 to 7 days at 20° C. and 85% relative humidity. After the incubation inhibition of growth is determined photometrically. Efficacy is calculated in relation to the untreated control, 0% efficacy means fungal growth as high as in untreated control while 100% efficacy means no fungal growth is measured.
# as §5
# Cordana musae [3] = test: in vitro-Test with fungal microorganisms, Method A (tables E1-E8); format: cell-based
# Protocol: as §1, §2, §3, §4, §5
# Cercospora beticola [4] = test: in vitro-Test with fungal microorganisms, Method B (tables C11-C20); format: cell-based
# Protocol: as §1, §6, §7, §8, §5
# Colletotrichum coccodes = test: in vitro-Test with fungal microorganisms, Method B (tables J1-J11); format: cell-based
# Protocol: as §1, §6, §7, §8, §5
# Alternaria alternata = test: in vitro-Test with fungal microorganisms, Method B (tables A13-A22); format: cell-based; conditions: single compound
# Protocol: as §1, §6, §7, §8, §5
# Botrytis cinerea [5] = test: in vitro-Test with fungal microorganisms, Method A (tables B1-B14); format: cell-based
# Protocol: as §1, §2, §3, §4, §5
# [6] = tested on: Ustilago segetum var. avenae; test: in vitro-Test with fungal microorganisms, Method A (tables I1-I5); format: cell-based; conditions: alone
# Protocol: as §1, §2, §3, §4, §5
# Alternaria alternate = test: in vitro-Test with fungal microorganisms, Method A (tables A1-A12); format: cell-based, Alternaria alternata; conditions: applied alone
# Protocol: as §1, §2, §3, §4, §5
# Diaporthe citri = test: in vitro-Test with fungal microorganisms, Method A (tables F1-F11); format: cell-based; conditions: applied alone
# Protocol: as §1, §2, §3, §4, §5
# Botrytis cinerea [7] = test: in vitro-Test with fungal microorganisms, Method B (tables B15-B18); format: cell-based
# Protocol: as §1, §6, §7, §8, §5
# Cordana musae [8] = test: in vitro-Test with fungal microorganisms, Method B (tables E9-E16); format: cell-based; conditions: for Efficacy: single active; for Efficacy %: single substance
# Protocol: as §1, §6, §7, §8, §5
# Cercospora beticola [9] = test: in vitro-Test with fungal microorganisms, Method A (tables C1-C10); format: cell-based
# Protocol: as §1, §2, §3, §4, §5
# [10] = tested on: Ustilago segetum var. avenae; test: in vitro-Test with fungal microorganisms, Method B (tables I6-I11); format: cell-based
# Protocol: as §1, §6, §7, §8, §5
# Fusarium culmorum [11] = test: in vitro-Test with fungal microorganisms, Method A (tables G1-G4); format: cell-based; conditions: alone
# Protocol: as §1, §2, §3, §4, §5
# [12] = single active compound, 0.04 ppm
# [13] = single active compound, 0.2 ppm
# [14] = Botrytis cinerea, read-out: Efficacy
# [15] = Botrytis cinerea, alone, read-out: Efficacy %
smiles,measurement,setting,value
"Cn1cc(C(=O)Nc2ccc(F)cc2-c2ccc(Cl)c(Cl)c2)c(C(F)F)n1 [(2.002) bixafen, bixafen]",Efficacy %,[1]; single active at 0.008 ppm,6% and 0%
same,Efficacy %,[1]; single active at 0.04 ppm,0%
same,Efficacy %,[1]; single active at 0.2 ppm,0%
same,Efficacy,Fusarium culmorum [2]; 0.008 ppm alone,2%
same,Efficacy,Fusarium culmorum [2]; 0.04 ppm alone,17%
same,Efficacy,"Fusarium culmorum [2]; single active compound, 0.008 ppm",2%
same,Efficacy,Fusarium culmorum [2]; [12],7%
same,Efficacy,Fusarium culmorum [2]; [13],11%
same,Efficacy,"Fusarium culmorum [2]; single active compound, 1 ppm",18%
same,Efficacy %,"Cordana musae [3]; single substance, 0.008 ppm",0% and 8%
same,Efficacy %,"Cordana musae [3]; single substance, 0.04 ppm",2% and 0%
same,Efficacy %,"Cordana musae [3]; single substance, 0.2 ppm",0%
same,Efficacy %,"Cordana musae [3]; single substance, 1.0 ppm",0%
same,Efficacy %,Cercospora beticola [4]; 1 ppm,0%
same,Efficacy %,"Cercospora beticola [4]; single compound, 0.2 ppm",14%
same,Efficacy %,"Cercospora beticola [4]; single compound, 1 ppm",20%
same,Efficacy %,Colletotrichum coccodes; 0.008 ppm,33%
same,Efficacy %,Colletotrichum coccodes; 0.04 ppm,45%
same,Efficacy %,Colletotrichum coccodes; 0.2 ppm,0%
same,Efficacy %,Colletotrichum coccodes; 1 ppm,0%
same,Efficacy %,Colletotrichum coccodes; single active compound at 0.008 ppm,30%
same,Efficacy,Alternaria alternata; 0.008 ppm,13% and 23%
same,Efficacy,Alternaria alternata; 0.04 ppm,67%
same,Efficacy,Alternaria alternata; 1 ppm,59% and 85%
same,Efficacy,Botrytis cinerea [5]; 0.04 ppm,22%
same,Efficacy,Botrytis cinerea [5]; 0.2 ppm,63%
same,Efficacy,Botrytis cinerea [5]; 1.0 ppm,67%
same,Efficacy %,[6]; 0.008 ppm,0%
same,Efficacy %,[6]; 0.04 ppm,0%
same,Efficacy %,[6]; 0.2 ppm,100%
same,Efficacy %,[6]; 1.0 ppm,100%
same,Efficacy %,Alternaria alternate; 0.008 ppm,29%
same,Efficacy %,Alternaria alternate; 0.04 ppm,23%
same,Efficacy %,Alternaria alternate; 0.2 ppm,66%
same,Efficacy %,Alternaria alternate; 1.0 ppm,46%
same,Efficacy,Diaporthe citri; 0.2 ppm,0% and 5%
same,Efficacy,Diaporthe citri; 1.0 ppm,0% and 5%
same,Efficacy %,"Botrytis cinerea [7]; alone, 0.008 ppm",6%
same,Efficacy %,"Botrytis cinerea [7]; alone, 0.2 ppm",0%
same,Efficacy %,"Botrytis cinerea [7]; alone, 1 ppm",66%
same,Efficacy,Cordana musae [8]; 0.008 ppm,17%
same,Efficacy,Cordana musae [8]; 0.04 ppm,0%
same,Efficacy,Cordana musae [8]; 0.2 ppm,0%
same,Efficacy,Cordana musae [8]; 1 ppm,2%
same,Efficacy %,Cordana musae [8]; 0.008 ppm,0%
same,Efficacy %,Cordana musae [8]; 0.04 ppm,0%
same,Efficacy %,Cordana musae [8]; 0.2 ppm,0%
same,Efficacy %,Cercospora beticola [9]; 0.2 ppm,0%
same,Efficacy %,Cercospora beticola [9]; 1.0 ppm,0%
same,Efficacy %,[10]; 0.2 ppm,44%
"CC(C)c1ccc(Cl)cc1CN(C(=O)c1c(C(F)F)nn(C)c1F)C1CC1 [(2.038) isoflucypram, isoflucypram]",Efficacy %,[1]; single active at 0.008 ppm,0%
same,Efficacy %,[1]; single active at 0.04 ppm,14%
same,Efficacy %,[1]; single active at 0.2 ppm,0%
same,Efficacy %,[1]; single active at 1.0 ppm,18%
same,Efficacy,Fusarium culmorum [2]; 0.008 ppm alone,0%
same,Efficacy,Fusarium culmorum [2]; 0.04 ppm alone,0%
same,Efficacy,Fusarium culmorum [2]; 0.2 ppm alone,10%
same,Efficacy,Fusarium culmorum [2]; 1 ppm alone,24%
same,Efficacy,Fusarium culmorum [2]; [12],10%
same,Efficacy,Fusarium culmorum [2]; [13],19% and 20%
same,Efficacy %,"Cordana musae [3]; mixing partner alone, 0.008 ppm",0%
same,Efficacy %,"Cordana musae [3]; mixing partner alone, 0.04 ppm",0%
same,Efficacy %,"Cordana musae [3]; mixing partner alone, 0.2 ppm",0%
same,Efficacy %,"Cordana musae [3]; mixing partner alone, 1.0 ppm",0%
same,Efficacy %,"Cordana musae [3]; single substance, 0.008 ppm",0%
same,Efficacy %,"Cordana musae [3]; single substance, 0.04 ppm",0%
same,Efficacy %,"Cordana musae [3]; single substance, 0.2 ppm",0% and 1%
same,Efficacy %,"Cordana musae [3]; single substance, 1.0 ppm",22% and 27%
same,Efficacy %,Cercospora beticola [4]; 0.008 ppm,8%
same,Efficacy %,Cercospora beticola [4]; 0.04 ppm,14%
same,Efficacy %,Cercospora beticola [4]; 0.2 ppm,16%
same,Efficacy %,Cercospora beticola [4]; 1 ppm,44%
same,Efficacy %,"Cercospora beticola [4]; single compound, 0.04 ppm",14% and 13%
same,Efficacy %,"Cercospora beticola [4]; single compound, 1 ppm",40% and 35%
same,Efficacy %,Colletotrichum coccodes; 0.008 ppm,0%
same,Efficacy %,Colletotrichum coccodes; 0.04 ppm,46%
same,Efficacy %,Colletotrichum coccodes; 0.2 ppm,8%
same,Efficacy %,Colletotrichum coccodes; 1 ppm,0%
same,Efficacy %,Colletotrichum coccodes; single active compound at 0.04 ppm,0% and 1%
same,Efficacy,Alternaria alternata; 0.008 ppm,22%
same,Efficacy,Alternaria alternata; 1 ppm,77%
same,Efficacy,Botrytis cinerea [5]; 1.0 ppm,75%
same,Efficacy %,"Botrytis cinerea [5]; alone, 0.008 ppm",5%
same,Efficacy %,"Botrytis cinerea [5]; alone, 0.04 ppm",53%
same,Efficacy %,"Botrytis cinerea [5]; alone, 0.2 ppm",58%
same,Efficacy %,"Botrytis cinerea [5]; alone, 1.0 ppm",77%
same,Efficacy %,[6]; 0.008 ppm,6% and 0%
same,Efficacy %,[6]; 0.2 ppm,100%
same,Efficacy %,[6]; 1.0 ppm,100%
same,Efficacy %,Alternaria alternate; 0.008 ppm,43% and 52%
same,Efficacy %,Alternaria alternate; 0.04 ppm,70% and 71% and 74%
same,Efficacy %,Alternaria alternate; 0.2 ppm,77% and 85% and 83%
same,Efficacy %,Alternaria alternate; 1.0 ppm,82% and 84%
same,Efficacy,Diaporthe citri; 0.008 ppm,0%
same,Efficacy,Diaporthe citri; 0.04 ppm,0%
same,Efficacy,Diaporthe citri; 1.0 ppm,30% and 38%
same,Efficacy %,Botrytis cinerea [7]; 0.2 ppm alone,53%
same,Efficacy %,Botrytis cinerea [7]; 1 ppm alone,70%
same,Efficacy,Cordana musae [8]; 0.2 ppm,9%
same,Efficacy,Cordana musae [8]; 1 ppm,20%
same,Efficacy %,Cercospora beticola [9]; 0.008 ppm alone,10%
same,Efficacy %,Cercospora beticola [9]; 0.04 ppm alone,0%
same,Efficacy %,Cercospora beticola [9]; 0.2 ppm alone,44%
same,Efficacy %,Cercospora beticola [9]; 1.0 ppm alone,69%
same,Efficacy %,[10]; 0.008 ppm,9%
same,Efficacy %,[10]; 0.04 ppm,17%
same,Efficacy %,[10]; 0.2 ppm,100%
same,Efficacy %,"[10]; alone, 0.008 ppm",2%
same,Efficacy %,"[10]; alone, 0.04 ppm",5%
same,Efficacy %,"[10]; alone, 0.2 ppm",100%
"CCN(C)C=Nc1cc(C)c(Oc2ccccc2F)cc1Cl [(15.064), N′-[2-chloro-4-(2-fluorophenoxy)-5-methylphenyl]-N-ethyl-N-methylimidoformamide]",inhibition of growth at 0.08 ppm,"[1]; Colletotrichum lindemuthianum, mixing partner alone, 0.08 ppm, read-out: Efficacy %",16%
same,inhibition of growth at 0.4 ppm,"[1]; Colletotrichum lindemuthianum, mixing partner alone, 0.4 ppm, read-out: Efficacy %",0%
same,inhibition of growth at 2 ppm,"[1]; Colletotrichum lindemuthianum, mixing partner alone, 2.0 ppm, read-out: Efficacy %",0%
same,inhibition of growth at 2 ppm,"Fusarium culmorum [11]; Fusarium culmorum, 2.0 ppm, read-out: Efficacy",0%
same,inhibition of growth at 10 ppm,"Fusarium culmorum [11]; Fusarium culmorum, 10.0 ppm, read-out: Efficacy",1%
same,inhibition of growth at 0.4 ppm,"Cordana musae [3]; Neocordana musae, mixing partner alone, 0.4 ppm, read-out: Efficacy %",0%
same,inhibition of growth at 2 ppm,"Cordana musae [3]; Neocordana musae, mixing partner alone, 2.0 ppm, read-out: Efficacy %",0%
same,inhibition of growth at 10 ppm,"Cordana musae [3]; Neocordana musae, mixing partner alone, 10.0 ppm, read-out: Efficacy %",27%
same,inhibition of growth at 0.08 ppm,Botrytis cinerea [5]; [14],5%
same,inhibition of growth at 0.4 ppm,"Botrytis cinerea [5]; Botrytis cinerea, 0.4 ppm, read-out: Efficacy",21%
same,inhibition of growth at 2 ppm,Botrytis cinerea [5]; [14],2%
same,inhibition of growth at 0.08 ppm,Botrytis cinerea [5]; [15],9%
same,inhibition of growth at 2 ppm,Botrytis cinerea [5]; [15],5%
same,inhibition of growth at 0.08 ppm,"Alternaria alternate; Alternaria, 0.08 ppm, read-out: Efficacy %",2%
same,inhibition of growth at 0.4 ppm,"Alternaria alternate; Alternaria, 0.4 ppm, read-out: Efficacy %",5%
same,inhibition of growth at 2 ppm,"Alternaria alternate; Alternaria, 2.0 ppm, read-out: Efficacy %",12%
same,inhibition of growth at 10 ppm,"Alternaria alternate; Alternaria, 10.0 ppm, read-out: Efficacy %",50%
same,inhibition of growth at 2 ppm,"Diaporthe citri; Diaporthe citri, 2.0 ppm, read-out: Efficacy",0%
same,inhibition of growth at 10 ppm,"Diaporthe citri; Diaporthe citri, 10.0 ppm, read-out: Efficacy",0%
CCO[PH](=O)[O-].CCO[PH](=O)[O-].CCO[PH](=O)[O-].[Al+3] [fosetylaluminium],Efficacy,Fusarium culmorum [11]; 0.8 ppm,7%
same,Efficacy,Fusarium culmorum [11]; 4.0 ppm,0%
same,Efficacy,Fusarium culmorum [11]; 20.0 ppm,5%
same,Efficacy,Fusarium culmorum [11]; 100.0 ppm,9%

# From patent US12653191B2, “Active compound combinations” (Bayer Aktiengesellschaft, priority 2020, dated 2026)
